From patent US20250375417A1, “OREXIN RECEPTOR 2 (OX2R) AGONIST FOR USE IN NARCOLEPSY TYPE 1 (NT1)” (TAKEDA PHARMACEUTICAL COMPANY LIMITED, priority 2024, published 2025)

Tests used:
participants with NT1 [1] = assay: Safety (TEAEs), LTE study interim analysis, NT1 participants; format: in vivo, human; conditions: for TEAE insomnia, frequency / TEAE micturition frequency, frequency / TEAE micturition urgency, frequency: LTE
Excerpt: This was a phase 2/3 multicenter, dose-blind, long-term extension (LTE) study of Compound A. Participants from controlled studies conducted with Compound A, who had up to a 3-month dosing gap between their parent study and the screening period for this study, were eligible to participate in this study.
Day 1 dosing for all participants occurred in-clinic with PK and safety assessments. Participants who were undergoing nocturnal polysomnography (nPSG) and an MWT during the final assessment of their Compound A parent study had the option of staying overnight in the clinic on Day −1 so they were already in the clinic for Day 1 the following day. Clinic visits after Week 4 were scheduled monthly up to Week 12, then approximately every 3 months until the end of Year 2 (Weeks 2, 4, 8, 12, 26, 38, 52, 64, 78, 90, and 104). […] Participants had either an in-clinic or home health follow up visit 4 weeks after their last dose. All other visits could be conducted through home health. Laboratory tests for safety were obtained biweekly up until Week 12, followed by monthly until Year 1, and then approximately every 3 months thereafter. Monthly phone calls were conducted to collect adverse event (AE) and concomitant medication information in Year 2.
In this dose-blind study, all participants received Compound A. Participants entering the study with or without a dosing gap from a parent Compound A study remained on the same indication-specific dose of Compound A assigned to them in their parent study. Participants randomized to placebo or comparator in their parent study were randomized to one of the indication-specific dose regimens of Compound A available in this study. The investigator could request a change to either a higher or lower dose level of Compound A to be dispensed at Week 8 in the LTE treatment period. Subsequently, if the participant wished to return to their original LTE dose, this could be implemented at Week 12 in the LTE. No further dose adjustments were allowed for the duration of the study, except on a case by case basis as approved by the sponsor. The dose never exceeded the maximum designated dose level in the study. For a participant with NT1, if the next highest dose was the 7 mg total daily dose, the participant was randomized to 1 of those 2 dose regimens (i.e., 2 mg followed by 5 mg, or 7 mg once daily).
Standard safety endpoints (e.g., TEAEs, physical examination findings, vital signs, 12-lead ECG measures, clinical laboratory results) for early clinical investigation were included. Further, because cardiovascular effects had been noted in nonclinical models with Compound A and OX2R agonists in general, and these effects are thought to be on-target effects, close monitoring of cardiovascular parameters, including time-matched BP measurements before and after dosing to detect any changes and potential tolerance in BP after the administration of repeat doses to participants with NT1 or NT2 were included.
For participants with NT1: • Dose Regimen 1: 0.5 mg twice daily, approximately 3 hours apart; • Dose Regimen 2: 2 mg followed by 2 mg, approximately 3 hours apart; • Dose Regimen 3: 2 mg followed by 5 mg, approximately 3 hours apart; * • Dose Regimen 4: 7 mg once daily.*
Participants completing either Example 1 or Example 2 with ≤3 months between parent study-end and LTE screening could enroll. Primary endpoint is the occurrence of treatment-emergent adverse events (TEAEs); secondary endpoints are change from baseline (parent study) in sleep onset latency on the Maintenance of Wakefulness Test (SOL-MWT), Epworth Sleepiness Scale (ESS) score, and weekly cataplexy rate (WCR). Participants with NT1 receive oral Compound A 0.5 mg twice 3 hours apart, 2 mg twice 3 hours apart, 2 mg then 5 mg 3 hours apart, or 7 mg once daily. Dose adjustments are allowed at specific timepoints (8 weeks and 12 weeks of the study and at other weeks on a sponsor-approved case-by-case basis). TEAEs are summarized under the dose at TEAE onset.

participants with NT1 [2] = assay: Exit interviews after Week 8, Phase 2 NT1 trial; format: in vivo, human; conditions: most Compound A participants (n=21)
Protocol: Treatment Satisfaction Questionnaire for Medication (TSQM) and exit interview results from the study were evaluated to explore the impact of Compound A treatment on individuals with ICSD-3-confirmed NT1. Participants aged 18-70 years, with an Epworth Sleepiness Scale (ESS) score>12, and ≥4 partial/complete episodes of cataplexy/week were included in the trial. Participants were randomized to oral Compound A (0.5 mg twice 3 hours apart, 2 mg twice 3 hours apart, 2 mg then 5 mg 3 hours later, or 7 mg once daily), or placebo.
FIG. 19 and FIG. 20 show the results of exit interview outcomes at Week 8. […] Symptoms rated as most important to improve from baseline were EDS, cataplexy and impaired cognitive function (FIG. 19); most frequently cited impacts were work/school-related, social/leisure activities and general quality of life (FIG. 20). Changes in impacts were meaningful for Compound A-treated participants but not for placebo-treated participants. Overall, 94.7% of Compound A-treated participants (18/19 respondents) would be willing to recommend Compound A to others with narcolepsy.

[3] = Clinical studies of Compound A: drug-induced liver injury; format: in vivo
Excerpt: Liver function test (LFTs) (alanine aminotransferase [ALT], aspartate aminotransferase [AST], γ-glutamyl transferase [GGT], and total bilirubin) were closely monitored in this study. Stopping criteria for individual participants and the overall study, based on abnormal LFTs were established.

[4] = 0.5 mg/0.5 mg (dose at TEAE onset)

With `CCS(=O)(=O)N[C@@H]1[C@H](Cc2cccc(-c3cc(F)cc(F)c3)c2F)N(C(=O)C(C)(C)O)CC1(F)F` [Compound A, N-{(2S,3R)-4,4-difluoro-1-(2-hydroxy-2-methylpropanoyl)-2-[(2,3′,5′-trifluoro[1,1′-biphenyl]-3-yl)methyl]pyrrolidin-3-yl}ethanesulfonamide] the “Hepatotoxicity or visual disturbances” value (participants with NT1 [1]; LTE interim) was “No cases of hepatotoxicity or visual disturbances were reported”, the “Participants with severe drug-related TEAEs (insomnia, cataplexy)” value (participants with NT1 [1]; LTE interim (N=104)) was “Two” and the “Participants discontinued due to TEAEs” value (participants with NT1 [1]; LTE interim (N=104), 3 unrelated to Compound A) was 6. For the same molecule, the “Participants who experienced a TEAE” value (participants with NT1 [1]; LTE interim analysis (N=104), all doses) was 54.8%, the “TEAE insomnia, frequency” value (participants with NT1 [1]; [4]) was 7.1% and the “TEAE micturition frequency, frequency” value (participants with NT1 [1]; [4]) was 10.7%. For the same molecule, the “TEAE micturition urgency, frequency” value (participants with NT1 [1]; [4]) was 10.7%, the “TEAE insomnia, frequency” value (participants with NT1 [1]; 2 mg/2 mg (dose at TEAE onset)) was 10.9% and the “TEAE micturition frequency, frequency” value (participants with NT1 [1]; 2 mg/2 mg (dose at TEAE onset)) was 4.3%. For the same molecule, the “TEAE micturition urgency, frequency” value (participants with NT1 [1]; 2 mg/2 mg (dose at TEAE onset)) was 2.2%, the “TEAE insomnia, frequency” value (participants with NT1 [1]; 2 mg/5 mg (dose at TEAE onset)) was 10.8% and the “TEAE micturition frequency, frequency” value (participants with NT1 [1]; 2 mg/5 mg (dose at TEAE onset)) was 8.1%. The “TEAE micturition urgency, frequency” value (participants with NT1 [1]; 2 mg/5 mg (dose at TEAE onset)) was 2.7%, the “TEAE insomnia, frequency” value (participants with NT1 [1]; 7 mg (dose at TEAE onset)) was 7.9% and the “TEAE micturition frequency, frequency” value (participants with NT1 [1]; 7 mg (dose at TEAE onset)) was 7.9%. The “TEAE micturition urgency, frequency” value (participants with NT1 [1]; 7 mg (dose at TEAE onset)) was 10.5%, the “Exit interview outcome: change in narcolepsy symptoms and functional impacts” value (participants with NT1 [2]) was “meaningful improvements in narcolepsy symptoms and functional impacts” and the Drug-induced liver injury [3] was “No cases of drug-induced liver injury have been reported”.
